# According to US7083969B2, “Serratia marcescens strain” (Korea Research Institute of Bioscience and Biotechnology, priority 1997, dated 2006):
# Experiments:
# T lymphocytes = experiment: Mixed lymphocyte reaction (T-cell response); type: cell-based, mice; details: for Immune Response (%) T cell: third day
# Text: (§1) Germ-free test animals, mice BDF1 and B6C3F1, obtained from Genetic Resources Center, Korean Research Institute of Bioscience and Biotechnology in the Korean Institute of Science and Technology, were used for the assay of the immunosuppressive activity of prodigiosin. […] At such concentrations as show no cytotoxic effects, prodigiosin cannot suppress the immune response of B lymphocytes. […] This selective immunosuppression for T lymphocytes is not ascribed to the selective cytotoxicity for T lymphocytes. The same immunosuppression results as in the ex vivo experiments were obtained in in vivo experiments. When T lymphocyte activity was measured by use of a graft versus host reaction and a T cell-dependent antibody producing reaction, the prodigiosin suppressed the immune response, but exerted no toxicity on animals. Therefore, the immunosuppressive activity of the prodigiosin is thought to be attributed to the selective suppression for T lymphocyte activity.
# (§2) The influence of prodigiosin on the functions of lymphocytes was measured using three reaction systems. First, the ability of B lymphocyte to proliferate in response to lipopolysaccharide stimulus was assessed. For this, on the third day after stimulation with lipopolysaccharide, the antibody production of the B lymphocyte was measured. When B lymphocytes are stimulated with lipopolysaccharide, they can produce antibodies without the aid of T lymphocyte. Second, a mixed lymphocyte reaction was induced in order to assess the effect on T-cell response. The reaction needs no aids from the B lymphocyte. On the third day after two types of heteroimmune cells, which are different from each other in histocompatibility antigen, were mixed to stimulate the activity of T lymphocytes, the T-cell response-was assessed. Third, the T-cell dependent antibody producing reaction was utilized to assess the effect of prodigiosin on the simultaneous immune response of both of the B and T lymphocytes. This reaction requires the functions of B and T lymphocytes, simultaneously. On the fifth day after immunization of the lymphocytes with the red blood cells of sheep, their antibody production ability was assessed.
# (§3) In Table 3, the values are relative to the immune response of the lymphocytes untreated with prodigiosin.
# [1] = tested on: CD4 T cell (helper T cell); experiment: Selective cytotoxicity: proportion of CD4 T cells after treatment; type: cell-based, mice; details: proportion of the cells
# Text: as §1
# Whether the selective immunosuppression of prodigiosin for T cells is attributed to the selective cytotoxicity for T cells or not was assayed by measuring the proportion of the cells. On the third day after treatment of the immune cells with prodigiosin, the number of the cells was counted. Because T lymphocytes consist of CD4 T cell (helper T cell) and CD8 T cell (cytotoxic T cell), the proportion of T and B lymphocytes was calculated in this Example.
# B and T lymphocytes [2] = experiment: T-cell dependent antibody producing reaction in vitro (sheep red blood cells); type: cell-based, mice
# Text: as §1, §2, §3
# CD4 T lymphocytes = experiment: Immunosuppressive activity on CD4 T lymphocytes; type: cell-based
# T lymphocyte = experiment: Concanavalin A-induced T lymphocyte proliferation (DNA synthesis); type: cell-based, mice; details: for Proliferation (%) T cell: three days
# Text: as §1
# (§4) Three standard substances which induce lymphocytes to proliferate were employed to measure the effect of the prodigiosin on proliferation of lymphocytes. 5 μg/ml of lipopolysaccharide were used to induce B lymphocyte to proliferate, 5 μg/ml of Concanavalin A for T lymphocyte and 5 μg/ml of Pokeweed mitogen for B and T lymphocytes, both. Prodigiosin was added, together with the proliferation-inducing substance. Three days after the addition, the proliferation effect was monitored by measuring the amount of DNA synthesized. In order to exclude the cytotoxicity of prodigiosin, it was used at a concentration of not more than 100 nM. In Table 2, the proliferation percentages mean the proliferated amounts of prodigiosin-treated lymphocytes relative to that of an non-treated group. As shown, the suppression percentage effected by prodigiosin in amounts of 30–100 nM reaches up to 96–98% for the T lymphocyte induced by concanavalin A while the proliferation of B lymphocyte induced by lipopolysaccharide and the proliferation of B/T lymphocytes induced by pokeweed mitogen are suppressed to the extent of 13–19% and 45–83%, respectively.
# CD8 T lymphocytes = experiment: Immunosuppressive activity on CD8 T lymphocytes; type: cell-based
# [3] = tested on: Immune cells separated from the spleens; experiment: Viability of spleen immune cells cultured in vitro (cytotoxicity); type: cell-based, mice; details: ex vivo experiments
# Text: as §1
# (§5) Immune cells were separated from the spleens of the germ-free animals and cultured in vitro. The cultures were treated with the prodigiosin at various amounts from 3 nM to 30,000 nM and the viability of the cells were measured from the first day to the third day after the treatment. Based on the initial viability of the immune cells, the viabilities of the test groups were calculated. […] So, subsequent experiments for immunoactivity were carried out at not more than 100 nM in order to exclude the cytotoxicity and to measure only the immunosuppressive effect of the prodigiosin.
# [4] = as above; type: cell-based, mice; details: mouse, immune cells separated from the spleen, cultured in vitro
# Text: as §1, §5
# B and T lymphocytes [5] = experiment: Pokeweed mitogen-induced B and T lymphocyte proliferation (DNA synthesis); type: cell-based, mice; details: for Proliferation (%) B/T cells: three days
# Text: as §1, §4
smiles,measurement,setting,value
"CCCCCC1=C/C(=C/c2[nH]c(-c3ccc[nH]3)cc2OC)N=C1C [Prodigiosin, prodigiosin]",Immune Response (%) T cell,"T lymphocytes; 3 nM, mixed lymphocyte reaction, relative to untreated lymphocytes",111%
same,Immune Response (%) T cell,T lymphocytes; 10 nM,110%
same,Immune Response (%) T cell,T lymphocytes; 30 nM,67%
same,Immune Response (%) T cell,T lymphocytes; 100 nM,30%
same,immune response in which T lymphocytes are involved,T lymphocytes; Table 3 concentration range,significantly suppressed
same,Proliferation (%) CD4 T cell,"[1]; 3 nM, third day after treatment",31%
same,Proliferation (%) CD4 T cell,"[1]; 10 nM, third day",31%
same,Proliferation (%) CD4 T cell,"[1]; 30 nM, third day",31%
same,Proliferation (%) CD4 T cell,"[1]; 100 nM, third day",29%
same,Immune Response (%) B/T cells,"B and T lymphocytes [2]; 3 nM, antibody production, fifth day after sheep red blood cells, relative to untreated lymphocytes",81%
same,Immune Response (%) B/T cells,"B and T lymphocytes [2]; 10 nM, fifth day",74%
same,Immune Response (%) B/T cells,"B and T lymphocytes [2]; 30 nM, fifth day",64%
same,Immune Response (%) B/T cells,"B and T lymphocytes [2]; 100 nM, fifth day",34%
same,immunosuppressive activity on CD4 T lymphocytes,CD4 T lymphocytes,has an immunosuppressive activity
same,Proliferation (%) T cell,"T lymphocyte; 3 nM, 5 μg/ml Concanavalin A, relative to non-treated group",77%
same,Proliferation (%) T cell,"T lymphocyte; 10 nM, Concanavalin A",46%
same,Proliferation (%) T cell,"T lymphocyte; 30 nM, Concanavalin A",4%
same,Proliferation (%) T cell,"T lymphocyte; 100 nM, Concanavalin A",2%
same,"suppression percentage, T lymphocyte induced by concanavalin A",T lymphocyte; 30–100 nM,96–98%
same,effect on proliferation and activity of T lymphocytes,T lymphocyte; non-cytotoxic concentrations,potential suppressive effect
same,immunosuppressive activity on CD8 T lymphocytes,CD8 T lymphocytes,has an immunosuppressive activity
same,concentration with no cytotoxic effects,[3],less than 100 nM
same,"viability at 1 day, 0.003 µM","[4]; 3 nM, 1st day after treatment, based on initial viability",96%
same,"viability at 2 day, 0.003 µM","[4]; 3 nM, 2nd day after treatment, based on initial viability",86%
same,"viability at 3 day, 0.003 µM","[4]; 3 nM, 3rd day after treatment, based on initial viability",79%
same,"viability at 1 day, 0.01 µM","[4]; 10 nM, 1st day",89%
same,"viability at 2 day, 0.01 µM","[4]; 10 nM, 2nd day",82%
same,"viability at 3 day, 0.01 µM","[4]; 10 nM, 3rd day",79%
same,"viability at 1 day, 0.03 µM","[4]; 30 nM, 1st day",89%
same,"viability at 2 day, 0.03 µM","[4]; 30 nM, 2nd day",70%
same,"viability at 3 day, 0.03 µM","[4]; 30 nM, 3rd day",81%
same,"viability at 1 day, 0.1 µM","[4]; 100 nM, 1st day",82%
same,"viability at 2 day, 0.1 µM","[4]; 100 nM, 2nd day",70%
same,"viability at 3 day, 0.1 µM","[4]; 100 nM, 3rd day",70%
same,"viability at 1 day, 0.3 µM","[4]; 300 nM, 1st day",68%
same,"viability at 2 day, 0.3 µM","[4]; 300 nM, 2nd day",14%
same,"viability at 3 day, 0.3 µM","[4]; 300 nM, 3rd day",18%
same,"viability at 1 day, 1000 nM","[4]; 1,000 nM, 1st day",74%
same,"viability at 2 day, 1000 nM","[4]; 1,000 nM, 2nd day",14%
same,"viability at 3 day, 1000 nM","[4]; 1,000 nM, 3rd day",14%
same,"viability at 1 day, 3000 nM","[4]; 3,000 nM, 1st day",61%
same,"viability at 2 day, 3000 nM","[4]; 3,000 nM, 2nd day",9%
same,"viability at 3 day, 3000 nM","[4]; 3,000 nM, 3rd day",8%
same,"viability at 1 day, 10000 nM","[4]; 10,000 nM, 1st day",32%
same,"viability at 2 day, 10000 nM","[4]; 10,000 nM, 2nd day",4%
same,"viability at 3 day, 10000 nM","[4]; 10,000 nM, 3rd day",4%
same,"viability at 1 day, 30000 nM","[4]; 30,000 nM, 1st day",4%
same,"viability at 2 day, 30000 nM","[4]; 30,000 nM, 2nd day",4%
same,"viability at 3 day, 30000 nM","[4]; 30,000 nM, 3rd day",4%
same,Proliferation (%) B/T cells,"B and T lymphocytes [5]; 3 nM, 5 μg/ml Pokeweed mitogen, relative to non-treated group",100%
same,Proliferation (%) B/T cells,"B and T lymphocytes [5]; 10 nM, Pokeweed mitogen",86%
same,Proliferation (%) B/T cells,"B and T lymphocytes [5]; 30 nM, Pokeweed mitogen",55%
same,Proliferation (%) B/T cells,"B and T lymphocytes [5]; 100 nM, Pokeweed mitogen",17%
same,suppression of proliferation of B/T lymphocytes induced by pokeweed mitogen,B and T lymphocytes [5]; 30–100 nM,45–83%
